Consider 23 molecules from US7709488B2, “Imidazopyridine-derivatives as inducible no-synthase inhibitors” (Altana Pharma AG, priority 2003, dated 2010).

Series [1] concerns the target human inducible NO-synthase (Homo sapiens, UniProt P35228). Put plainly: Measurement of inducible NO-synthase activity ([3H]arginine conversion, crude cytosolic fraction). It is filed as biochemical. The settings on record: 0.1 μM arginine, 45 to 60 min at 37° C., pH 7.2; for IC50: read-out: Inhibition of iNOS activity [measured as −logIC50 (mol/l)] (converted). Here is the method: Measurement of Inducible NO-Synthase Activity
The assay is performed in 96-well microtiter F-plates (Greiner, Frickenhausen, FRG) in a total volume of 100 μl in the presence of 100 nM calmodulin, 226 μM CaCl2, 477 μM MgCl2, 5 μM flavin-adenine-dinucleotide (FAD), 5 μM flavin mononucleotide (FMN), 0.1 mM NADPH, 7 mM glutathione, 10 μM BH4 and 100 mM HEPES pH 7.2. Arginine concentrations are 0.1 μM for enzyme inhibition experiments. 150000 dpm of [^3H]arginine are added to the assay mixture. Enzyme reaction is started by the addition of 4 μg of a crude cytosolic fraction containing human inducible NO-synthase and the reaction mixture is incubated for 45 to 60 min at 37° C. Enzyme reaction is stopped by adding 10 μl of 2M MES-buffer pH 5.0. 50 μl of the incubation mixture are transferred into a MADP N65 filtration microtiter plate (Millipore, Eschbom, FRG) containing already 50 μl of AG-50W-X8 cation exchange resin (Biorad, München, FRG). The resin in the Na loaded form is pre-equilibrated in water and 70 μl (corresponding to 50 μl dry beads) are pipetted under heavy stirring with a 8 channel pipette into the filtration plate. After pipetting 50 μl of the enzyme reaction mixture onto the filtration plates, the plates are placed on a filtration manifold (Porvair, Shepperton, UK) and the flow through is collected in Pico scintillation plates (Packard, Meriden, Conn.). The resin in the filtration plates is washed with 75 μl of water (1×50 μl and 1×25 μl) which is also collected in the same plate as the sample. The total flow through of 125 μl is mixed with 175 μl of Microscint-40 scintillation cocktail (Packard) and the scintillation plate is sealed with TopSeal P-foil (Packard). Scintillation plates are counted in a scintillation counter.
For the measurement of inducible NO-synthase-inhibiting potencies of compounds increasing concentrations of inhibitors were included into the incubation mixture. IC50-values were calculated from the percent inhibition at given concentrations by nonlinear least square fitting.
The inhibitory values determined for the compounds according to the invention follow from the following table A, in which the compound numbers correspond to the example numbers.

In the case of `COc1ccnc(CCc2nc3cc(-c4ccc(S(=O)(=O)N5CCN(C)CC5)cc4)cnc3[nH]2)c1` [Compound 1], the melting point (usually the temperature of the solid-liquid transition) was in the range of 193 to 195 °C. Moreover, the IC50 in series [1] was 19.5 nM. For `COc1ccnc(CCc2nc3cc(-c4ccc(S(=O)(=O)N5CCN(Cc6ccccc6)CC5)cc4)cnc3[nH]2)c1` [Compound 2, 2-[2-(4-Methoxypyridin-2-yl)-ethyl]-6-[4-(4-benzylpiperazin-1-yl-sulfonyl)-phenyl]-3H-imidazo-[4,5-b]pyridine], in that order: 160 to 162 °C and 35.5 nM. For `COc1ccnc(CCc2nc3cc(-c4ccc(S(=O)(=O)N5CCN(c6ccccc6)CC5)cc4)cnc3[nH]2)c1` [Compound 3, 2-[2-(4-Methoxypyridin-2-yl)ethyl]-6-[4-(4-phenylpiperazin-1-yl-sulfonyl)-phenyl]-3H-imidazo-[4,5-b]pyridine], in that order: 218 to 220 °C and 14.5 nM. The matching figures for `COc1ccnc(CCc2nc3cc(-c4ccc(S(=O)(=O)N5CCN(c6ccc(C#N)cc6)CC5)cc4)cnc3[nH]2)c1` [Compound 4, 2-[2-(4-Methoxypyridin-2-yl)ethyl]-6-{4-[4-(4-cyanophenyl)-piperazin-1-yl-sulfonyl]-phenyl}-3H-imidazo-[4,5-b]pyridine]: 217 to 219 °C and 30.2 nM. Molecule `COc1ccnc(CCc2nc3cc(-c4ccc(S(=O)(=O)N5CCN(c6ccc(C)cc6)CC5)cc4)cnc3[nH]2)c1` [Compound 5, 2-[2-(4-Methoxypyridin-2-yl)ethyl]-6-[4-(4-p-tolyl-piperazin-1-yl-sulfonyl)-phenyl]-3H-imidazo-[4,5-b]pyridine] came in with a melting point of 150 to 154 °C. Also, the IC50 in series [1] is 26.3 nM. `COc1ccnc(CCc2nc3cc(-c4ccc(S(=O)(=O)N5CCN(c6ccc(C)cc6C)CC5)cc4)cnc3[nH]2)c1` [Compound 6, 6-{4-[4-(2,4-Dimethylphenyl)-piperazin-1-yl-sulfonyl]-phenyl}-2-[2-(4-methoxy-pyridin-2-yl)ethyl]-3H-imidazo[4,5-b]pyridine] gave a melting point of 208 to 209 °C. In series [1], the IC50 was 126 nM. In turn, `COc1ccnc(CCc2nc3cc(-c4ccc(S(=O)(=O)N5CCN(c6cc(Cl)cc(Cl)c6)CC5)cc4)cnc3[nH]2)c1` [Compound 7, 6-{4-[4-(3,5-Dichlorphenyl)-piperazin-1-yl-sulfonyl]-phenyl}-2-[2-(4-methoxy-pyridin-2-yl)ethyl]-3H-imidazo[4,5-b]pyridine] returned an Inhibition of iNOS activity [measured as −logIC50] in series [1] of 6.51. Regarding `COCCN1CCN(S(=O)(=O)c2ccc(-c3cnc4[nH]c(CCc5cc(OC)ccn5)nc4c3)cc2)CC1` [Compound 8, 6-{4-[4-(2-Methoxy-ethyl)-piperazin-1-yl-sulfonyl]-phenyl}-2-[2-(4-methoxy-pyridin-2-yl)ethyl]-3H-imidazo[4,5-b]pyridine], the melting point was in the range of 206 to 208 °C. Moreover, the IC50 in series [1] is 42.7 nM.

With `COc1ccnc(CCc2nc3cc(-c4ccc(S(=O)(=O)N5CCN(C(C)=O)CC5)cc4)cnc3[nH]2)c1` [Compound 9, 6-[4-(4-Acetyl-piperazin-1-yl-sulfonyl)-phenyl]-2-[2-(4-methoxy-pyridin-2-yl)ethyl]-3H-imidazo[4,5-b]pyridine], the melting point is 138 to 140 °C. Besides, in series [1], the IC50 was 29.5 nM. For `COc1ccnc(CCc2nc3cc(-c4ccc(S(=O)(=O)N5CCOCC5)cc4)cnc3[nH]2)c1` [Compound 10, 2-[2-(4-Methoxypyridin-2-yl)ethyl]-6-[4-(morpholin-4-yl-sulfonyl)-phenyl]-3H-imidazo-[4,5-b]pyridine], in that order: 210 to 212 °C and 22.9 nM. The molecule `COc1ccnc(CCc2nc3cc(-c4ccc(S(=O)(=O)N5CCCN(C)CC5)cc4)cnc3[nH]2)c1` [Compound 11, 2-[2-(4-Methoxypyridin-2-yl)ethyl]-6-[4-(4-methyl-[1,4]diazepan-1-yl-sulfonyl)-phenyl]-3H-imidazo-[4,5-b]pyridine] had a melting point of 160 to 162 °C. The IC50 in series [1] was 12.9 nM. For `COc1ccnc(CCc2nc3cc(-c4ccc(S(=O)(=O)N5CCC(C)CC5)cc4)cnc3[nH]2)c1` [Compound 12, 2-[2(4-Methoxypyridin-2-yl)ethyl]-6-[4-(4-methyl-piperidin-1-yl-sulfonyl)-phenyl]-3H-imidazo-[4,5-b]pyridine], in that order: 186 to 188 °C and 25.1 nM. The matching figures for `COc1ccnc(CCc2nc3cc(-c4ccc(S(=O)(=O)N5CCC(C(=O)c6ccccc6)CC5)cc4)cnc3[nH]2)c1` [Compound 13, 6-[4-(4-Benzoyl-piperidin-1-yl-sulfonyl)-phenyl]-2-[2-(4-methoxy-pyridin-2-yl)ethyl]-3H-imidazo[4,5-b]pyridine]: 174 to 175 °C and 33.1 nM. For the molecule `COc1ccnc(CCc2nc3cc(-c4ccc(S(=O)(=O)N5CCC6(CC5)OCCO6)cc4)cnc3[nH]2)c1` [Compound 14, 6-[4-(1,4-dioxa-8-azaspiro[4.5]decan-8-yl-sulfonyl)-phenyl]-2-[2-(4-methoxy-pyridin-2-yl)ethyl]-3H-imidazo[4,5-b]pyridine], the melting point was in the range of 121 to 122 °C. In addition, the IC50 in series [1] was 26.3 nM. Molecule `COc1ccnc(CCc2nc3cc(-c4ccc(S(=O)(=O)N5CCc6cc(OC)c(OC)cc6C5)cc4)cnc3[nH]2)c1` [Compound 15, 6-[4-(6,7-Dimethoxy-1,2,3,4-tetrahydroisoquinolin-2-yl-sulfonyl)-phenyl]-2-[2-(4-methoxy-pyridin-2-yl)ethyl]-3H-imidazo[4,5-b]pyridine] yielded a melting point of 207 to 208 °C. The IC50 in series [1] is 34.7 nM. For `COc1ccnc(CCc2nc3cc(-c4ccc(S(=O)(=O)N5CCNC(=O)CC5)cc4)cnc3[nH]2)c1` [Compound 16, 6-[4-(1,4-Diazepan-5-one-1-yl-sulfonyl)-phenyl]-2-[2-(4-methoxy-pyridin-2-yl)ethyl]-3H-imidazo[4,5-b]pyridine], in that order: 230 to 232 °C and 24 nM. The matching figures for `COc1ccnc(CCc2nc3cc(-c4ccc(S(=O)(=O)NCCO)cc4)cnc3[nH]2)c1` [Compound 17, N-(2-Hydroxyethyl)-4-{2-[2-(4-methoxypyridin-2-yl)ethyl]-3H-imidazo[4,5-b]pyridin-6-yl}benzenesulfonamid]: 218 to 220 °C and 42.7 nM.

The molecule `COc1ccnc(CCc2nc3cc(-c4ccc(S(=O)(=O)N(CCO)CCO)cc4)cnc3[nH]2)c1` [Compound 18, N,N-Bis-(2-hydroxyethyl)-4-{2-[2-(4-methoxypyridin-2-yl)ethyl]-3H-imidazo-[4,5-b]pyridin-6-yl}benzenesulfonamid] showed a melting point of 127 to 128 °C. Further, the IC50 in series [1] was 91.2 nM. For `COc1ccnc(CCc2nc3cc(-c4ccc(S(=O)(=O)NCc5ccccc5)cc4)cnc3[nH]2)c1` [Compound 19, N-Benzyl-4-{2-[2-(4-methoxypyridin-2-yl)ethyl]-3H-imidazo-[4,5-b]pyridin-6-yl}benzenesulfonamid], in that order: 211 to 212 °C and 18.6 nM. The matching figures for `COc1ccnc(CCc2nc3cc(-c4ccc(S(=O)(=O)NC5CCCCC5)cc4)cnc3[nH]2)c1` [Compound 20, N-Cyclohexyl-4-{2-[2-(4-methoxypyridin-2-yl)ethyl]-3H-imidazo-[4,5-b]pyridin-6-yl}benzenesulfonamid]: 199 to 200 °C and 50.1 nM. In turn, `COc1ccnc(CCc2nc3cc(-c4ccc(S(=O)(=O)N(C)C)c(OC(F)(F)F)c4)cnc3[nH]2)c1` [Compound 21, 4-{2-[2-(4-Methoxypyridin-2-yl)ethyl]-3H-imidazo[4,5-b]pyridin-6-yl}-N,N-dimethyl-2-trifluormethoxy-benzenesulfonamide] yielded an Inhibition of iNOS activity [measured as −logIC50] in series [1] of 6.95. On the same count and under the same terms, for `COc1ccnc(CCc2nc3cc(-c4ccc(S(=O)(=O)N(C)C)c(C(F)(F)F)c4)cnc3[nH]2)c1` [Compound 22, 4-{2-[2-(4-Methoxypyridin-2-yl)ethyl]-3H-imidazo[4,5-b]pyridin-6-yl}-N,N-dimethyl-2-trifluormethyl-benzenesulfonamide] the value was 7; for `COc1ccnc(CCc2nc3cc(-c4ccc(S(=O)(=O)N(C)c5ccc(Cl)cc5)cc4)cnc3[nH]2)c1` [Compound 28, N-(4-Chlorphenyl)-N-methyl-4-{2-[2-(4-methoxypyridin-2-yl)ethyl]-3H-imidazo-[4,5-b]pyridin-6-yl}benzenesulfonamid], 7.41.
